The text below walks through data of ChEMBL document CHEMBL1139151, “Minor groove binder antibody conjugates employing a water soluble beta-glucuronide linker” (Bioorg Med Chem Lett, 2007).

Common to all, as to format: functional, cell-based
One assay deals with CAKI-1. The assay can be described thus: Cytotoxicity against CD70 positive Caki1 cells assessed as cell viability after 96 hrs. The note with it: Homo sapiens, CAKI-1, 96 h.
Another assay deals with L-428. Briefly: Cytotoxicity against CD30 positive and CD70 negative L428 cells assessed as cell viability after 96 hrs. The settings on record: Homo sapiens, L-428, 96 h.
Assay [1] in a line: Cytotoxicity against CD30 positive Karpas 299 cells assessed as cell viability after 96 hrs. The note with it: Homo sapiens, KARPAS-299, 96 h.
Assay [2] is described as follows: Cytotoxicity against CD30 positive L540 Cy cells assessed as cell viability after 96 hrs. The note with it: Homo sapiens, L540cy.

pIC50: −log10 of the molar value.

As for `COc1ccc(/C=C/C(=O)N2CC(CCl)c3c2cc(N)c2ccccc32)cc1` (centres undefined), the pIC50 – broadly, the negative decadic logarithm of the IC50, by convention in mol/L – in the assay on CAKI-1 is 9.15; in the assay on L-428 it was 10.00; in assay [1], 8.92; in assay [2] it was 9.30.
